Assay results taken from patent US20230099441A1, “HETEROCYCLIC COMPOUND, APPLICATION THEREOF, AND COMPOSITION CONTAINING SAME” (GenEros Biopharma Ltd., priority 2019, published 2023).

Test system: STAT5 Y694 phosphorylation
Test: Protein electrophoresis and blotting of STAT5 Y694 phosphorylation in Jurkat cells stimulated with human interferon beta
Format: cell-based
Conditions: for Inhibiting Ratio (0% for vehicle control): 1 hour pretreatment, 20 ng/ml human interferon beta 30 minutes, pSTAT5/GAPDH; for Example of Effect 1: Inhibiting Ability (Protein Electrophoresis and Blotting): observed pSTAT5 bands at 10 μM and 100 μM
Procedure: Example of Effect 1: Protein Electrophoresis and Blotting Experiment
Standard protein electrophoresis and chemiluminescence imaging equipment (Bio-Rad);
Protein lysate RIPA (Lianke Biological; Cat #WB020); Western blot transfer membrane PVDF (Millipore; Cat #IPVH00010);
Jurkat cells (ATCC American Standard Culture Center, TIB152) were cultured in a 6-well plate at a density of 1×10^6/ml with RPMI medium […] 10% fetal bovine serum in a humidified incubator at 37° C. and maintained at 5% carbon dioxide overnight. On the second day, the cells were pretreated with compounds of different concentrations (the mother liquor of the compound prepared by dimethyl sulfoxide was diluted in the medium at the required concentration) for 1 hour, and then stimulated with 20 ng/ml human interferon beta for 30 minutes, it was mixed thoroughly and then placed in an incubator at 37° C. environment. […] Then an appropriate volume of RIPA Lysis Solution was added, it was mixed well, and placed on ice for 1 hour, inverted and mixed several times in the middle. Then, the cell lysate was centrifuged at 12000 rpm at 4° C. for 10 minutes, and the supernatant was transferred to another test tube, aliquoted and stored at −20° C. until use.
An equal volume of protein lysate was mixed with an appropriate 6-fold protein loading buffer (Biyun Tian Biochemical Company P0015F), and the mixture was heated at 95 degrees for 10 minutes, after full denaturation, the protein sample was added to the polyacrylamide gel (self-made, raw material purchased from Soleibao Biotechnology Company A1010, 30% acrylamide solution), and electrophoresis was performed at the appropriate voltage for 1 hour, until the strips were fully separated. It was transferred to a polyvinylidene fluoride membrane according to standard procedures, and blocked with 5% skim milk for 1 hour, and the specified antibody was added, and it was diluted 1:1000 in 3% bovine serum albumin, and it was incubated overnight for four degrees. It was thoroughly rinsed, incubated with the secondary antibody, exposed to chemiluminescence and signals were collected. ImageJ software was used to quantify the obtained chemiluminescence results. The same area was selected, the gray values of STAT5 phosphorylation band and GAPDH band of each sample were analyzed, and the ratio of pSTAT5/GAPDH level was calculated. The value of the solvent-treated sample was 100%, and the remaining samples were converted into relative data in the same proportion, that is, the percentage corresponding to the solvent sample. […] The solvent control group was the same as the test compound group except that DMSO was used instead of the DMSO solution of the test compound. N1 (Pimozide) was a specific positive control.

| SMILES | Inhibiting Ratio (0% for vehicle control) (1 μM) [%] | Inhibiting Ratio (0% for vehicle control) (10 μM) [%] | Inhibiting Ratio (0% for vehicle control) (100 μM) [%] | Example of Effect 1: Inhibiting Ability (Protein Electrophoresis and Blotting) |
| --- | --- | --- | --- | --- |
| O=C(Cc1ccc(C(F)(F)F)cc1)N1CC(n2c(=O)[nH]c3ccccc32)C1 [GEN1-023, 1-(1-(2-(4-(trifluoromethyl)phenyl)acetyl)azetidin-3-yl)-1H-benzo[d]imidazole-2(3H)-one] | 9.4 | 33.3 | 93.6 | + |
| O=C(Cc1ccc(C(F)(F)F)cc1)N[C@H]1C[C@@H](n2c(=O)[nH]c3ccccc32)C1 [GEN1-024, N-((1s,3s)-3-(2-oxo-2,3-dihydro-1H-benzo[d]imidazol-1-yl)cyclobutyl)-2-(4-(trifluoromethyl)phenyl)acetamide] |  |  |  | − |
| O=C(Cc1ccc(C(F)(F)F)cc1)N[C@H]1C[C@H](n2c(=O)[nH]c3ccccc32)C1 [GEN1-025, N-((1r,3r)-3-(2-oxo-2,3-dihydro-1H-benzo[d]imidazol-1-yl)cyclobutyl)-2-(4-(trifluoromethyl)phenyl)acetamide] |  |  |  | − |
| O=C(Cc1ccc(C(F)(F)F)nc1)N1CCC(n2c(=O)[nH]c3ccccc32)CC1 [GEN1-027, 1-(1-(2-(6-(trifluoromethyl)pyridin-3-yl)acetyl)piperidin-4-yl)-1H-benzo[d]imidazole-2(3H)-one] |  |  |  | + |
| O=C(Cc1ccc(C(F)(F)F)cn1)N1CCC(n2c(=O)[nH]c3ccccc32)CC1 [GEN1-028, 1-(1-(2-(5-(trifluoromethyl)pyridin-2-yl)acetyl)piperidin-4-yl)-1H-benzo[d]imidazole-2(3H)-one] | 14.5 | 32.6 | 93.3 | − |
| O=C(Cc1cccc(C(F)(F)F)c1)N1CCC(n2c(=O)[nH]c3ccccc32)CC1 [GEN1-029, 1-(1-(2-(3-(trifluoromethyl)phenyl)acetyl)piperidin-4-yl)-1H-benzo[d]imidazole-2(3H)-one] | −74.1 | −67.7 | 92.3 | + |
| O=C(Cc1ccccc1C(F)(F)F)N1CCC(n2c(=O)[nH]c3ccccc32)CC1 [GEN1-030, 1-(1-(2-(2-(trifluoromethyl)phenyl)acetyl)piperidin-4-yl)-1H-benzo[d]imidazole-2(3H)-one] | 15.7 | 19.4 | 94.0 | − |
| O=C(Cc1ccc(C2CC2)cc1)N1CCC(n2c(=O)[nH]c3ccccc32)CC1 [GEN1-032, 1-(1-(2-(4-cyclopropylphenyl)acetyl)piperidin-4-yl)-1H-benzo[d]imidazole-2(3H)-one] | −16.3 | 13.8 | 94.9 | + |
| O=C(Cc1ccc(-c2ccccc2)cc1)N1CCC(n2c(=O)[nH]c3ccccc32)CC1 [GEN1-033, 1-(1-(2-([1,1′-biphenyl]-4-yl)acetyl)piperidin-4-yl)-1H-benzo[d]imidazole-2(3H)-one] | 12.8 | 7.6 | 98.0 | + |
| O=C(Cc1ccc(N2CCOCC2)cc1)N1CCC(n2c(=O)[nH]c3ccccc32)CC1 [GEN1-034, 1-(1-(2-(4-morpholinophenyl)acetyl)piperidin-4-yl)-1H-benzo[d]imidazole-2(3H)-one] |  |  |  | − |
| O=C(Cc1ccc(C(F)(F)F)cc1)N1CCC(n2c(=O)[nH]c3ncccc32)CC1 [GEN1-041, 1-(1-(2-(4-(trifluoromethyl)phenyl)acetyl)piperidin-4-yl)-1H-imidazo[4,5-b]pyridine-2(3H)-one] |  |  |  | + |
| O=C(Cc1ccc(C(F)(F)F)cc1)N1CCC(n2c(=O)[nH]c3cnccc32)CC1 [GEN1-042, 1-(1-(2-(4-(trifluoromethyl)phenyl)acetyl)piperidin-4-yl)-1H-imidazo[4,5-c]pyridin-2(3H)-one] |  |  |  | + |
| O=C(Cc1ccc(C(F)(F)F)cc1)N1CCC(n2c(=O)[nH]c3ccncc32)CC1 [GEN1-043, 3-(1-(2-(4-(trifluoromethyl)phenyl)acetyl)piperidin-4-yl)-1H-imidazo[4,5-c]pyridin-2(3H)-one] |  |  |  | − |
| O=C(Cc1ccc(C(F)(F)F)cc1)N1CCC(n2c(=O)[nH]c3cccnc32)CC1 [GEN1-044, 3-(1-(2-(4-(trifluoromethyl)phenyl)acetyl)piperidin-4-yl)-1H-imidazo[4,5-b]pyridin-2(3H)-one] |  |  |  | + |
| O=C1Nc2ccccc2C1C1CCN(C(=O)Cc2ccc(C(F)(F)F)cc2)CC1 (stereo not drawn) [GEN1-051, 3-(1-(2-(4-(trifluoromethyl)phenyl)acetyl)piperidin-4-yl)indol-2-one] |  |  |  | + |
| O=C(Cc1ccc(C(F)(F)F)cc1)N1CCC(N2c3ccccc3NS2(=O)=O)CC1 [GEN1-054, 1-(4-(2,2-dioxybenzo[c] [1,2,5]thiadiazole-1(3H)-yl)piperidin-1-yl)-2-(4-(trifluoromethyl)phenyl)ethenone] |  |  |  | − |
| O=C(Cc1ccc(C(F)(F)F)cc1)N1CCC(n2c(=O)n(O)c3ccccc32)CC1 [GEN1-059, 1-hydroxy-3-(1-(2-(4-(trifluoromethyl)phenyl)acetyl)piperidin-4-yl)-1H-benzo[d]imidazol-2(3H)-one] |  |  |  | − |
| N#CNc1nc2ccccc2n1C1CCN(C(=O)Cc2ccc(C(F)(F)F)cc2)CC1 [GEN1-061] |  |  |  | + |
| O=C(Cc1ccc(C(F)(F)F)cc1)NCC1Cc2cccc3[nH]c(=O)n(c23)C1 (stereo not drawn) [GEN1-065] |  |  |  | − |
| O=c1[nH]c2ccccc2n1C1CCN(S(=O)(=O)Cc2ccc(C(F)(F)F)cc2)CC1 [GEN1-068, 1-(1-((4-(trifluoromethyl)benzyl)sulfonyl)piperidin-4-yl)-1H-benzo[d]imidazol-2(3H)-one] |  |  |  | − |
| COc1ccc(CC(=O)N2CCC(n3c(=O)[nH]c4ccccc43)CC2)cc1 [GEN1-070, 1-(1-(2-(4-methoxyphenyl)acetyl)piperidin-4-yl)-1H-benzo[d]imidazol-2(3H)-one] |  |  |  | − |
| O=C(Cc1ccc(O)cc1)N1CCC(n2c(=O)[nH]c3ccccc32)CC1 [GEN1-071, 1-(1-(2-(4-hydroxyphenyl)acetyl)piperidin-4-yl)-1H-benzo[d]imidazol-2(3H)-one] |  |  |  | − |
| O=C(Cc1ccc2ccccc2c1)N1CCC(n2c(=O)[nH]c3ccccc32)CC1 [GEN1-073, 1-(1-(2-(naphth-2-yl)acetyl)piperidin-4-yl)-1H-benzo[d]imidazol-2(3H)-one] |  |  |  | + |
| O=C(Cc1ccc(C(F)(F)F)o1)N1CCC(n2c(=O)[nH]c3ccccc32)CC1 [GEN1-078, 1-(1-(2-(5-(trifluoromethyl)furan-2-yl)acetyl)piperidin-4-yl)-1H-benzo[d]imidazol-2(3H)-one] |  |  |  | + |
| O=C(Cc1ccc(C(F)(F)F)cc1)NCc1cnc2c(c1)CC(=O)N2 [GEN1-083, N-((2-oxo-2,3-dihydro-1H-pyrrolo[2,3-b]pyridin-5-yl)methyl)-2-(4-(trifluoromethyl)phenyl)acetamide] |  |  |  | − |
| O=C(Cc1ccc(C(F)(F)F)cc1)NCc1ccc2c(c1)C(=O)NC2 [GEN1-084, N-((3-oxoisoindol-5-yl)methyl)-2-(4-(trifluoromethyl)phenyl)acetamide] |  |  |  | + |
| O=C(Cn1c(=O)[nH]c2ccccc21)N1CCC(O)(c2ccc(C(F)(F)F)cc2)CC1 [GEN1-085, 1-(2-(4-hydroxy-4-(4-(trifluoromethyl)phenyl)piperidin-1-yl)-2-oxoethyl)-1H-benzo[d]imidazol-2(3H)-one] |  |  |  | − |
